According to US10577362B2, “Substituted 2, 4-diamino-quinoline derivatives for use in the treatment of proliferative diseases” (GENOSCIENCE PHARMA, priority 2016, dated 2020):
Structures can show the parent of a compound that is named as a salt.

How the values were obtained:
Type in all cases: cell-based, human
[1] = system: 786-O (renal adenocarcinoma) cell line; assay: CellTiter-Glo luminescent cell viability assay, 786-O; conditions: Homo sapiens, 786-0; for viability at 4 µM / viability at 10 µM: 786-O, 72 h; for viability at 4 µM: compound at 4 μM; for viability at 10 µM: compound at 10 μM; for EC50: 786-O cell line, 72 h incubation, CellTiter-Glo, read-out: EC50, growth inhibition of 786-O
Outline: (§1)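 Adherent lines plated overnight, MOLM-14 (suspension) 1 h before dosing, in medium with 10% FBS at 37 °C, 5% CO2. Compounds added at varying concentrations for 72 h; CellTiter-Glo luminescence read, EC50 as dose reducing signal to 50% of diluent-treated cells, at least duplicate points.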

[2] = system: HepG2 (hepatocellular carcinoma) cell line; assay: CellTiter-Glo luminescent cell viability assay, HepG2; conditions: Homo sapiens; for viability at 4 µM / viability at 10 µM: HepG2, HepG, 72 h; for viability at 4 µM: compound at 4 μM; for viability at 10 µM: compound at 10 μM; for EC50: HepG2 cell line, 72 h incubation, CellTiter-Glo, read-out: EC50, growth inhibition of HepG2
Outline: (§2)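 Cells were cultured at 37 °C, 5% CO2 with 10% FBS; adherent lines were plated overnight, suspension MOLM-14 plated 1 h before dosing. Compounds in H2O or DMSO were added at various concentrations for 72 h, and viability was read by luminescence. EC50 is the dose reducing signal to 50% of diluent control.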

[3] = system: Huh7 (hepatocellular carcinoma) cell line; assay: CellTiter-Glo luminescent cell viability assay, Huh7; conditions: Homo sapiens, Huh-7; for viability at 4 µM: Huh7, compound at 4 μM; for viability at 4 µM / viability at 10 µM: 72 h; for viability at 10 µM: Huh7, compound at 10 μM; for EC50: Huh7 cell line, 72 h incubation, CellTiter-Glo, read-out: EC50, growth inhibition of Huh7
Outline: as §2

[4] = system: MOLM-14 (acute myeloid leukemia) cell line; assay: CellTiter-Glo luminescent cell viability assay, MOLM-14; conditions: Homo sapiens; for viability at 4 µM: MOLM-14, compound at 4 μM; for viability at 4 µM / viability at 10 µM: 72 h; for viability at 10 µM: MOLM-14, compound at 10 μM; for EC50: MOLM-14 cell line, 72 h incubation, CellTiter-Glo, read-out: EC50, growth inhibition of MOLM-14
Outline: as §2

[5] = system: A375 (malignant melanoma) cell line; assay: CellTiter-Glo luminescent cell viability assay, A375; conditions: Homo sapiens, A-375; for viability at 4 µM: A375, compound at 4 μM; for viability at 4 µM / viability at 10 µM: 72 h; for viability at 10 µM: A375, compound at 10 μM; for EC50: A375 cell line, 72 h incubation, CellTiter-Glo, read-out: EC50, growth inhibition of A375
Outline: as §1

[6] = system: HCT-116 (colorectal carcinoma) cell line; assay: CellTiter-Glo luminescent cell viability assay, HCT-116; conditions: Homo sapiens; for viability at 4 µM: HCT-116, compound at 4 μM; for viability at 4 µM / viability at 10 µM: 72 h; for viability at 10 µM: HCT-116, compound at 10 μM; for EC50: HCT-116 cell line, 72 h incubation, CellTiter-Glo, read-out: EC50, growth inhibition of HCT-116
Outline: as §1

COc1ccc(OC2CCN(c3c(C#N)c(NCc4ccc(Cl)cc4)nc4ccccc34)C2)cc1 (stereo not drawn) [Compound 3334CN, 2-(4-chlorobenzylamino)-3-cyano-4-[3-(4-methoxyphenoxy)pyrrolidin-1-yl]quinoline]
viability at 4 µM [1]: 93.6% | viability at 10 µM [1]: 91.2% | viability at 4 µM [2]: 97.7% | viability at 10 µM [2]: 89.1% | viability at 4 µM [3]: 89.9% | viability at 10 µM [3]: 94.4% | viability at 4 µM [4]: 105% | viability at 10 µM [4]: 96.5% | viability at 4 µM [5]: 93.2% | viability at 10 µM [5]: 90% | viability at 4 µM [6]: 92.8% | viability at 10 µM [6]: 88.6%

O[C@@H]1CCN(c2cc(NCc3ccc(Cl)cc3)nc3ccccc23)C1 [Compound 2988, (3R) 2-(4-chlorobenzylamino)-4-(3-hydroxypyrrolidin-1-yl)quinoline hydrochloride]
EC50 [1]: 0.5 to 5 µM | EC50 [2]: 0.5 to 5 µM | EC50 [3]: 0.5 to 5 µM | EC50 [4]: 0.5 to 5 µM | EC50 [5]: 0.5 to 5 µM | EC50 [6]: 5 to 10 µM

N#Cc1c(NCc2ccc(Cl)cc2)nc2ccccc2c1N1CCC(Oc2cccc(F)c2)CC1 [Compound 3228CN, 2-(4-chlorobenzylamino)-3-cyano-4-[4-(3-fluorophenoxy)piperidin-1-yl]quinoline]
viability at 4 µM [1]: 97.9% | viability at 10 µM [1]: 92.9% | viability at 4 µM [2]: 96.7% | viability at 10 µM [2]: 86.7% | viability at 4 µM [3]: 117% | viability at 10 µM [3]: 108% | viability at 4 µM [4]: 107% | viability at 10 µM [4]: 100% | viability at 4 µM [5]: 98% | viability at 10 µM [5]: 91.7% | viability at 4 µM [6]: 101% | viability at 10 µM [6]: 85.2%

Cc1c(NCc2ccc(Cl)cc2)nc2ccccc2c1N1CCC(NC(C)(C)C)CC1 [Compound 350, 2-(4-chlorobenzylamino)-3-methyl-4-[4-(tert-butylamino)piperidin-1-yl]quinoline]
EC50 [1]: 0.5 to 5 µM | EC50 [2]: 0.5 to 5 µM | EC50 [3]: 5 to 10 µM | EC50 [4]: 5 to 10 µM | EC50 [5]: 0.5 to 5 µM | EC50 [6]: 0.5 to 5 µM

Cc1cc(C)nc(Nc2ccc(Nc3nc4ccccc4c(N4CCC(NC(C)(C)C)CC4)c3C#N)cc2C)n1 [Compound 502CN, 2-[4-(4,6-dimethyl-2-pyrimidinamino)-3-methyl-phenylamino]-3-cyano-4-(4-tert-butylaminopiperidin-1-yl)-quinoline]
EC50 [1]: 0.5 to 5 µM | EC50 [2]: 0.5 to 5 µM | EC50 [3]: 5 to 10 µM | EC50 [4]: 5 to 10 µM | EC50 [5]: 0.5 to 5 µM | EC50 [6]: 0.5 to 5 µM

Cc1c(F)ccc2c(N3CCC(NC(C)(C)C)CC3)cc(NCc3ccc(Cl)cc3)nc12 [Compound 572, 2-(4-chlorobenzylamino)-4-[4-(tert-butylamino)piperidin-1-yl]-7-fluoro-8-methylquinoline]
EC50 [1]: 0.5 to 5 µM | EC50 [2]: 0.5 to 5 µM | EC50 [3]: 0.5 to 5 µM | EC50 [4]: 0.5 to 5 µM | EC50 [5]: 0.5 to 5 µM | EC50 [6]: 0.5 to 5 µM

Clc1ccc(CNc2cc(N3CC[C@@H](Oc4ccccn4)C3)c3ccccc3n2)cc1 [Compound 3026, (3R) 2-(4-chlorobenzylamino)-4-[3-(pyridin-2-yloxy)pyrrolidin-1-yl]quinoline hydrochloride]
EC50 [1]: 0.5 to 5 µM | EC50 [2]: 0.5 to 5 µM | EC50 [3]: 0.5 to 5 µM | EC50 [4]: 0.5 to 5 µM | EC50 [5]: 0.5 to 5 µM | EC50 [6]: 0.5 to 5 µM

CN(Cc1ccc(Cl)cc1)c1cc(N2CCC(NC(C)(C)C)CC2)c2ccccc2n1 [Compound 212, 2-(N-4-chlorobenzyl-N-methylamino)-4-[4-(tert-butylamino)-piperidin-1-yl]-quinoline, Hydrochloride Salt]
EC50 [1]: 5 to 10 µM | EC50 [2]: 0.5 to 5 µM | EC50 [3]: 5 to 10 µM | EC50 [4]: 5 to 10 µM | EC50 [5]: 0.5 to 5 µM | EC50 [6]: 0.5 to 5 µM

Cc1ccc(OC2CCN(c3c(C#N)c(NCc4ccc(Cl)cc4)nc4ccccc34)C2)cc1 (stereo not drawn) [Compound 3332CN, 2-(4-chlorobenzylamino)-3-cyano-4-[3-(4-methylphenoxy)pyrrolidin-1-yl]quinoline]
viability at 4 µM [1]: 52% | viability at 10 µM [1]: 25% | viability at 4 µM [2]: 65.6% | viability at 10 µM [2]: 62.5% | viability at 4 µM [3]: 95.3% | viability at 10 µM [3]: 58.3% | viability at 4 µM [4]: 104% | viability at 10 µM [4]: 94.1% | viability at 4 µM [5]: 108% | viability at 10 µM [5]: 103% | viability at 4 µM [6]: 101% | viability at 10 µM [6]: 87.2%

Cc1cc2c(C)nc(Nc3ccc(Nc4nc5ccccc5c(N5CCC(NC(C)(C)C)CC5)c4C#N)cc3C)nc2o1 [Compound 512CN, 2-[3-methyl-4-(4,6-dimethylfuro[2,3-d]pyrimidin-2-ylamino)phenylamino]-3-cyano-4-(4-tert-butylaminopiperidin-1-yl)quinoline]
viability at 4 µM [1]: 0.2% | viability at 10 µM [1]: 0.2% | viability at 4 µM [2]: 0.2% | viability at 10 µM [2]: 0.2% | viability at 4 µM [3]: 0.2% | viability at 10 µM [3]: 0.3% | viability at 4 µM [4]: 0.2% | viability at 10 µM [4]: 0.3% | viability at 4 µM [5]: 0.3% | viability at 10 µM [5]: 0.2% | viability at 4 µM [6]: 0.2% | viability at 10 µM [6]: 0.2%

Cc1ccc(Nc2nc3ccccc3c(N3CCC(NC(C)(C)C)CC3)c2C#N)cc1Nc1nccc(C(F)(F)F)n1 [Compound 538CN, 2-[3-(4-trifluoromethylpyrimidin-2-ylamino)-4-methyl-phenylamino]-3-cyano-4-(4-tert-butylaminopiperidin-1-yl)-quinoline]
EC50 [1]: 5 to 10 µM | EC50 [2]: 0.5 to 5 µM | EC50 [3]: 5 to 10 µM | EC50 [4]: 5 to 10 µM | EC50 [5]: 0.5 to 5 µM | EC50 [6]: 0.5 to 5 µM

CC(C)OC1CCN(c2cc(NCc3ccc(Cl)cc3)nc3ccccc23)CC1 [Compound 2918, 2-(4-chlorobenzylamino)-4-[4-(iso-propoxy)-piperidin-1-yl]-quinoline hydrochloride]
EC50 [1]: 5 to 10 µM | EC50 [2]: 0.5 to 5 µM | EC50 [3]: 5 to 10 µM | EC50 [4]: 0.5 to 5 µM | EC50 [5]: 5 to 10 µM | EC50 [6]: 0.5 to 5 µM

CC(C)CN(Cc1ccc(Cl)cc1)c1cc(N2CCC(NC(C)(C)C)CC2)c2ccccc2n1 [Compound 220, 2-(N-4-chlorobenzyl-N-isobutylamino)-4-[4-(tert-butylamino)-piperidin-1-yl]-quinoline]
viability at 4 µM [1]: 74.6% | viability at 10 µM [1]: 0.4% | viability at 4 µM [2]: 79.6% | viability at 10 µM [2]: 31% | viability at 4 µM [3]: 81.5% | viability at 10 µM [3]: 0.3% | viability at 4 µM [4]: 78.9% | viability at 10 µM [4]: 52.6% | viability at 4 µM [5]: 76.3% | viability at 10 µM [5]: 0.3% | viability at 4 µM [6]: 60.9% | viability at 10 µM [6]: 0.3%

Cc1cc(Nc2nc3ccccc3c(N3CCC(NC(C)(C)C)CC3)c2C#N)ccc1Nc1nccc(-c2cccnc2)n1 [Compound 3131CN, 2-[4-(4-(pyridin-3-yl)pyrimidin-2-ylamino)-3-methylphenylamino]-3-cyano-4-(4-tert-butylaminopiperidin-1-yl)quinoline]
viability at 4 µM [1]: 42.6% | viability at 10 µM [1]: 0.1% | viability at 4 µM [2]: 80.6% | viability at 10 µM [2]: 0.1% | viability at 4 µM [3]: 87% | viability at 10 µM [3]: 69.8% | viability at 4 µM [4]: 80.1% | viability at 10 µM [4]: 7.3% | viability at 4 µM [5]: 79.4% | viability at 10 µM [5]: 0.1% | viability at 4 µM [6]: 63.9% | viability at 10 µM [6]: 0.1%

COc1cc(C)nc(Nc2ccc(Nc3nc4ccccc4c(N4CCC(NC(C)(C)C)CC4)c3C#N)cc2C)n1 [Compound 510CN, 2-[4-(4-methyl-6-methoxypyrimidin-2-ylamino)-3-methylphenylamino]-3-cyano-4-(4-tert-butylaminopiperidin-1-yl)quinoline]
viability at 4 µM [1]: 2.8% | viability at 10 µM [1]: 0.1% | viability at 4 µM [2]: 54.6% | viability at 10 µM [2]: 0.1% | viability at 4 µM [3]: 62.6% | viability at 10 µM [3]: 0.3% | viability at 4 µM [4]: 74.5% | viability at 10 µM [4]: 0.2% | viability at 4 µM [5]: 57.4% | viability at 10 µM [5]: 0.1% | viability at 4 µM [6]: 24.8% | viability at 10 µM [6]: 0.1%
